Measurements published in US20260014246A1, “TREATMENT METHODS FOR VIRAL INFECTIONS” (priority 2022, published 2026).
Read-outs that look alike come from different tables or passages of the source. Peptide text beside a SMILES is read from it.

Key:
Vero-E6 cells = test: Cytotoxic effects in Vero-E6 cells (Reliablue viability); type: cell-based
Method: Data for peptide 4F (Ac-[…]-NH2; SEQ ID NO: 34) is also provided. In this example, Vero-E6 cells (96 well plate) were grown in EMEM containing 10% FBS and Pen/Strep at 37° C. and 5% CO2. Once cells reached 80% confluence, medium was replaced with fresh complete medium containing the indicated concentration of peptide (FIGS. 6A-B) or peptide complexed with DMPC (1:5 ratio weight:weight). Incubation period proceeded for 24 or 48 hrs. Cells were washed and replaced with complete medium containing fluorescent Reliablue reagent. Viability was then measured. Data are presented as percent viability compared to control (no additions). Results are presented as the mean±SEM.

SARS-COV-2 Alpha [1] = details: for IC50: Alpha
SARS-COV-2 Alpha [2] = test: Remdizivir treatment of mice challenged with SARS-COV-2 Alpha; type: in vivo, female hACE2 Knock-in mice; details: 25 mg/kg bodyweight, single dose; 54000 pfu intranasal; untreated mice 20%
H1N1A-California = type: in vivo, female C57BL/6J mice
H1N1 [3] = test: Second challenge with active H1N1 after intranasal peptide-inactivated H1N1; type: in vivo, female C57BL/6J mice; details: 14 days
SARS-COV-2 Alpha [4] = test: SARS-COV-2 Alpha pre-incubated with peptide and given intranasally to mice; type: in vivo, female hACE2 Knock-in mice; details: 54000 pfu pre-incubated ~45 min with 10 μM peptide; intranasal; 14 days
SARS-COV-2 Alpha [5] = test: Rechallenge with active SARS-COV-2 Alpha after EVE18 inactivated SARS-COV-2 Alpha (homologous); type: in vivo, female hACE2 Knock-in mice; details: rechallenge with 54000 pfu SARS-COV-2 Alpha eight weeks after initial challenge; 14 days
SARS-COV-2 Delta [6] = test: SARS-COV-2 Delta pre-incubated with EVE18 and given intranasally to mice; type: in vivo, female hACE2 Knock-in mice; details: 54000 pfu SARS-COV-2 Delta pre-incubated ~45 min with 10 μM peptide; intranasal; 14 days
SARS-COV-2 Delta [7] = test: Rechallenge with active SARS-COV-2 Delta after EVE18 inactivated SARS-COV-2 Alpha (heterologous); type: in vivo, female hACE2 Knock-in mice; details: rechallenge with 54000 pfu SARS-COV-2 Delta nine and seven weeks after initial challenge; two groups; 14 days
SARS-COV-2 Alpha [8] = test: Therapeutic dosing of EVE18 in mice challenged with SARS-COV-2 Alpha; type: in vivo, female hACE2 Knock-in mice
H1N1 [9] = test: Sub-cutaneous EVE14 in mice challenged intranasally with H1N1; type: in vivo, female C57BL/6J mice
H1N1 [10] = test: Second H1N1 challenge of mice that received H1N1 and sub-cutaneous EVE14; type: in vivo, female C57BL/6J mice; details: second challenge 1200 pfu H1N1 three weeks after the first
[11] = [peptide-lipid] complex (DMPC 1:5 weight:weight), 48 hours incubation
[12] = 300 micrograms sub-cutaneous 2 hr prior to virus and second dose 24 hr after virus

With `CC(=O)N[C@@H](CC(C)C)C(=O)N[C@@H](CCCNC(=N)N)C(=O)N[C@@H](CCCCN)C(=O)N[C@@H](CC(C)C)C(=O)N[C@@H](CCCNC(=N)N)C(=O)N[C@@H](CCCCN)C(=O)N[C@@H](CCCNC(=N)N)C(=O)N[C@@H](CC(C)C)C(=O)N[C@@H](CC(C)C)C(=O)N[C@@H](CCCNC(=N)N)C(=O)N[C@@H](CC(=O)O)C(=O)N[C@@H](Cc1c[nH]c2ccccc12)C(=O)N[C@@H](CC(C)C)C(=O)N[C@@H](CCCCN)C(=O)N[C@@H](C)C(=O)N[C@@H](Cc1ccccc1)C(=O)N[C@@H](Cc1ccc(O)cc1)C(=O)N[C@@H](CC(=O)O)C(=O)N[C@@H](CCCCN)C(=O)N[C@H](C(=O)N[C@@H](C)C(=O)N[C@@H](CCC(=O)O)C(=O)N[C@@H](CCCCN)C(=O)N[C@@H](CC(C)C)C(=O)N[C@@H](CCCCN)C(=O)N[C@@H](CCC(=O)O)C(=O)N[C@@H](C)C(=O)N[C@@H](Cc1ccccc1)C(N)=O)C(C)C` [EVE4] (Ac-LRKLRKRLLRDWLKAFYDKVAEKLKEAF-NH2) the cytotoxic effects (Vero-E6 cells; [11]) was “lack of cytotoxic effects”, the cytotoxic effects (Vero-E6 cells; peptide, 24 hours incubation) was “lack of cytotoxic effects” and the cytotoxic effects (Vero-E6 cells; peptide, 48 hours incubation) was “lack of cytotoxic effects”. The “antiviral activity in comparison to remdesivir” value (SARS-COV-2 Alpha [1]) was “greater antiviral activity than remdesivir”, the “SARS-COV-2 positive area reduced to” value (SARS-COV-2 Alpha [1]; 1 μM) was about 0 and the IC50 (SARS-COV-2 Alpha [1]) was 3 to 4.5 µM.

With `CC[C@H](C)[C@H](NC(=O)[C@H](CCCNC(=N)N)NC(=O)[C@H](C)NC(=O)[C@H](Cc1c[nH]c2ccccc12)NC(=O)[C@H](CO)NC(=O)CNC(=O)[C@H](CC(C)C)NC(=O)[C@H](Cc1ccccc1)NC(=O)[C@H](CCCNC(=N)N)NC(=O)[C@H](CCCNC(=N)N)NC(=O)[C@H](Cc1ccccc1)NC(=O)CNC(C)=O)C(=O)N[C@@H](Cc1ccc(O)cc1)C(=O)N[C@@H](CCCNC(=N)N)C(=O)N[C@@H](C)C(=O)N[C@@H](Cc1ccccc1)C(=O)N[C@H](C(=O)NCC(N)=O)C(C)C` [EVEmR18L, Ac-GFRRFLGSWARIYRAFVG-NH2] (Ac-GFRRFLGSWARIYRAFVG-NH2) the cytotoxic effects (Vero-E6 cells; [11]) was “lack of cytotoxic effects”, the cytotoxic effects (Vero-E6 cells; peptide, 24 hours incubation) was “lack of cytotoxic effects” and the cytotoxic effects (Vero-E6 cells; peptide, 48 hours incubation) was “lack of cytotoxic effects”. For the same compound, the “antiviral activity in comparison to remdesivir” value (SARS-COV-2 Alpha [1]) was “greater antiviral activity than remdesivir”, the “reduction of the SARS-COV-2 positive area” value (SARS-COV-2 Alpha [1]; 1 μM) was “approximately 80%” and the “SARS-COV-2 positive area reduced to” value (SARS-COV-2 Alpha [1]; 10 μM) was about 0. It also gave an IC50 (SARS-COV-2 Alpha [1]) of 3 to 4.5 µM.

In the case of `CCC(CC)COC(=O)[C@H](C)N[P@](=O)(OC[C@H]1O[C@@](C#N)(c2ccc3c(N)ncnn23)[C@H](O)[C@@H]1O)Oc1ccccc1` [remdesivir, reference compound], the mouse survival (SARS-COV-2 Alpha [2]) is reported as 40% and the “reduction of the SARS-COV-2 positive area” value (SARS-COV-2 Alpha [1]; 1 μM) is reported as “approximately 65%”.

With Ac-GFRRFYGSIWRFIRAFVG-NH2 [EVE18] the bodyweight loss (H1N1A-California; 14 days) was “No mouse in this group died or lost significant bodyweight”, the “mortality (frank mortality or weight loss of 25%)” value (H1N1A-California; 14 days) was “No mouse in this group died” and the mortality after rechallenge (H1N1 [3]; mice first given peptide-treated H1N1 (~45 min, ~10 μM), rechallenged several weeks later with 1200 pfu active H1N1A-California) was “No mouse in this group died during this period”. The survival (SARS-COV-2 Alpha [4]) was “All mice in this group survived”, the rechallenged mice survived (SARS-COV-2 Alpha [5]) was about 75% and the survival (SARS-COV-2 Delta [6]) was “All mice in this group survived”. For the same compound, the survival (SARS-COV-2 Delta [7]) was 85%, the “mortality (timing)” value (SARS-COV-2 Alpha [8]; 300 micrograms 24 hr, 48 hr and 72 hrs after 54000 pfu virus) was “delayed mortality” and the survival (SARS-COV-2 Alpha [8]; 300 micrograms 24 hr, 48 hr and 72 hrs after 54000 pfu virus, 10 days, virus alone 20%) was 50%. The “mortality (timing)” value (SARS-COV-2 Alpha [8]; [12]) was “delayed the mortality” and the survival (SARS-COV-2 Alpha [8]; [12]) was 70%.

For Ac-RRFYGSIWRFIRAF-NH2 [EVE14], the bodyweight loss (H1N1A-California; 14 days) was “incapable of inducing weight loss or frank death”, the “death (frank death or 25% decrease in bodyweight)” value (H1N1A-California; 14 days) was “incapable of inducing death” and the “mortality (frank mortality or weight loss of 25%)” value (H1N1A-California; 14 days) was “No mice in this group died”. The weight loss (H1N1A-California; 14 days) was “incapable of inducing weight loss”, the survival (H1N1A-California; mouse, in vivo) was “survived this initial challenge” and the weight loss (H1N1A-California; mouse, in vivo) was “lost little weight”. For the same compound, the “bodyweight loss after second challenge” value (H1N1 [3]; mice first given H1N1A pre-incubated with peptide for 60 minutes, second challenge 1200 pfu active H1N1 several weeks later) was “no mouse in the group which underwent a second H1N1 challenge lost significant bodyweight”, the weight loss (H1N1 [9]; 300 micrograms sub-cutaneously plus 150 microgram boosters (24, 48 hr or 24-96 hr), 1200 pfu H1N1 intranasal, compared to untreated mice) was “significant delay in their weight loss which also was blunted” and the weight loss (H1N1 [9]; Example 13, FIG. 14: 1200 pfu H1N1 intranasal, peptide sub-cutaneously) was “much reduced weight loss”. For the same compound, the “survival (or bodyweight loss of less than 25%)” value (H1N1 [9]; both sub-cutaneous treatment groups compared to H1N1 alone) was “significantly increased survival”, the “mortality or weight loss after second challenge” value (H1N1 [10]) was “does not elicit mortality or weight loss” and the mice survived (SARS-COV-2 Alpha [4]) was “Ninety”.
